Results as given in paper PMC9763333, “In vitro characterization of immune modulating drug-eluting immunobeads towards transarterial embolization in cancer” (Scientific Reports, 2022).
Where “and” joins values, the source holds several entries; their conditions need not be identical. Equal entries are not always repeated. Entries after “also recorded” stand apart in the source; their conditions may differ.

Columns and labels:
Format in all cases: physicochemical
[1] = Drug solubilization by salt formation in acid; details: T in °C in parentheses in the cell (20.1 or 21.1)
Protocol: The base form of each drug was suspended in deionized water and titrated with 0.1 N hydrochloric acid (Fisher Scientific, Hampton, NH) while stirring until all the base was solubilized and the volume adjusted to a final concentration of 2.5 mg/mL. The resulting solution was frozen, then lyophilized to yield solid drug-hydrochloride salt or used in its solubilized form for loading into DC Bead LUMI. […] Doxorubicin.HCl was readily solubilized and used without modification. […] A ZORBAX Eclipse Plus C8 reversed-phase column (Agilent) and UV detector at wavelength of 230 nm were used for GS-9620 analysis. The decomposition product of GS-9620 was analyzed with reversed phase high-performance liquid chromatography (Rp-HPLC) and LC/MS.

[2] = Drug loading into DC Bead LUMI
Protocol: DC Bead LUMI was analyzed for its elemental composition by MEDAC Inc. […] Drug loading was performed in triplicate as previously reported[45] with slight modifications. […] Washing of beads is often a critical step in drug release studies as any drug left unbound to the beads affects the release profile and exaggerates the early burst release. […] However, washing was discontinued for TLR drugs as drug was continually observed even after multiple washes. […] The amount of drug loaded at the specified time points was calculated by subtracting the amount of drug remaining from the initial amount of drug in the loading solution and the cumulative amount of drug withdrawn for sampling. The maximum drug loaded in the beads was calculated once no further change in the concentration in the loading solution could be measured and before washing the beads. The relative percent drug loaded was defined as the maximum amount of drug loaded as a percent of the amount of SO3^- ions available in the beads on a molar basis using the following formula and the results are presented as the mean ± SD.

[3] = Drug release from DC Bead LUMI in saline; details: for release in saline from DC Bead LUMI after multiple washes in deionized water: single replicates
Protocol: […] Briefly, drug-loaded DC Bead LUMI or LC Bead (62.5 µL) were placed in vessels with 50 mL of saline ([…], pH 7.4) and were agitated with upright rocking motion at a set maximum rocking speed of 10 (70 rpm) for 144 h at 37 °C using Ward's® Rotating Mixer. At scheduled time intervals identical to the loading time points, 1 mL of release media was withdrawn and used for drug quantification. To maintain 50 mL total elution volume, 1 mL of fresh saline pre heated to 37 °C was replaced at each timepoint. […] 2.4. The cumulative amount of drug released at each time point was calculated by multiplying the concentration of each sample aliquot by the total volume (50 mL) of release media and adding the sum of the amount of drug removed for sampling at prior time points. […] The 50 mL volume was chosen to ensure infinite sink conditions where the maximum possible concentration of eluted drug would be at least 10 times more dilute than the maximum solubility. This ensures the rate of release is not affected by solution concentration but is only a function of interactions of the bead, drug, and saline.

[4] = Washing of drug-loaded beads with deionized water and microscopic appearance
Protocol: Drug loading was performed in triplicate as previously reported[45] with slight modifications. […] Washing of beads is often a critical step in drug release studies as any drug left unbound to the beads affects the release profile and exaggerates the early burst release. […] However, washing was discontinued for TLR drugs as drug was continually observed even after multiple washes. […] The amount of drug loaded at the specified time points was calculated by subtracting the amount of drug remaining from the initial amount of drug in the loading solution and the cumulative amount of drug withdrawn for sampling. The maximum drug loaded in the beads was calculated once no further change in the concentration in the loading solution could be measured and before washing the beads. The relative percent drug loaded was defined as the maximum amount of drug loaded as a percent of the amount of SO3^- ions available in the beads on a molar basis using the following formula and the results are presented as the mean ± SD.

Q: Which “pH at which each drug dissolved for loading” value [1] does the source give for `CC(C)Cn1cnc2c(N)nc3ccccc3c21` [IMQ, imiquimod] here?
A: 2.06 (20.1)

Q: What about the “Relative percent drug loaded in DC Bead LUMI over time” value ([2]; 5 min, single replicates) of the same compound?
A: 27.7169% and 54.7567% and 47.2582%

Q: What about the “Relative percent drug loaded in DC Bead LUMI over time” value ([2]; 15 min, single replicates) of the same compound?
A: 44.3244% and 64.1912% and 77.4846%

Q: What about the “Relative percent drug loaded in DC Bead LUMI over time” value ([2]; 30 min, single replicates) of the same compound?
A: 53.7652% and 98.7583% and 64.7248%

Q: What about the “Relative percent drug loaded in DC Bead LUMI over time” value ([2]; 45 min, single replicates) of the same compound?
A: 63.5604% and 86.8486% and 80.4348%

Q: And the “Relative percent drug loaded in DC Bead LUMI over time” value ([2]; 60 min, single replicates)?
A: 62.6391% and 89.327% and 89.6722%

Q: What about the “Relative percent drug loaded in DC Bead LUMI over time” value ([2]; 120 min, single replicates) of the same compound?
A: 76.6569% and 94.7702% and 91.6603%

Q: What about the “Relative percent drug loaded in DC Bead LUMI over time” value ([2]; 180 min, single replicates) of the same compound?
A: 84.3868% and 95.4708% and 91.4628%

Q: What about the “Relative percent drug loaded in DC Bead LUMI over time” value ([2]; 240 min, single replicates) of the same compound?
A: 88.4335% and 96.0638% and 91.7809%

Q: And the “Relative percent drug loaded in DC Bead LUMI over time” value ([2]; 300 min, single replicates)?
A: 89.1562% and 94.7965% and 91.1063%

Q: And the “Relative percent drug loaded in DC Bead LUMI over time” value ([2]; 360 min, single replicates)?
A: 89.8821% and 93.7278% and 90.6691%

Q: And the “Relative percent drug loaded in DC Bead LUMI over time” value ([2]; 420 min, single replicates)?
A: 89.552% and 95.0881% and 90.3963%

Q: What about the “Relative percent drug loaded in DC Bead LUMI over time” value ([2]; 480 min, single replicates) of the same compound?
A: 88.9036% and 95.9382% and 95.3273%

Q: And the “Relative percent drug loaded in DC Bead LUMI over time” value ([2]; 1440 min, single replicates)?
A: 88.6238% and 94.7298% and 89.6159%

Q: And the “Relative percent drug loaded in DC Bead LUMI over time” value ([2]; 2880 min, single replicates)?
A: 89.5863% and 97.1979% and 88.3669%

Q: What about the “Relative percent drug loaded in DC Bead LUMI over time” value ([2]; 4320 min, single replicates) of the same compound?
A: 89.4163% and 95.3897% and 90.7133%

Q: What about the “Relative percent drug loaded in DC Bead LUMI over time” value ([2]; 8640 min, single replicates) of the same compound?
A: 89.5369% and 92.0678% and 86.7361%

Q: What about the “loading behaviour” value ([2]; DC Bead LUMI) of the same compound?
A: Fast loading

Q: And the “Relative percent drug loaded (maximum, percent of SO3− available on a molar basis)” value ([2]; DC Bead LUMI, mean (n = 3))?
A: 95% and 94.66%

Q: What about the “equivalent of drug loaded to sulfonated bead” value ([2]; DC Bead LUMI, mean ± SD) of the same compound?
A: 0.27 ± 0.01 mM drug/ml beads

Q: And the Maximum drug loaded ([2]; DC Bead LUMI, mean ± SD, n = 3, base form except Dox (salt form))?
A: 65.28 ± 3.09 mg drug/ml beads

Q: And the “Maximum drug loaded (Triplicate), %” value ([2]; DC Bead LUMI, single replicates)?
A: 89.8821% and 98.7583% and 95.3273%

Q: What about the “Drug: sulfonate” value ([2]; molar ratio at maximum loading, DC Bead LUMI) of the same compound?
A: 0.946

Q: What about the “Theoretical maximum loading level based on SO3− contents” value ([2]; per mL DC Bead LUMI, assuming 1:1 drug to sulfonate) of the same compound?
A: 68.97 mg

Q: What about the “release in saline from DC Bead LUMI after multiple washes in deionized water” value (shortened to “release in saline from DC Bead LUMI”) ([3]; 5 min) of the same compound?
A: 3.738 mg/mL of beads and 1.905 mg/mL of beads and 0.7403 mg/mL of beads

Q: What about the “release in saline from DC Bead LUMI” value ([3]; 15 min) of the same compound?
A: 4.599 mg/mL of beads and 2.598 mg/mL of beads and 1.25 mg/mL of beads

Q: And the “release in saline from DC Bead LUMI” value ([3]; 30 min)?
A: 6.014 mg/mL of beads and 2.518 mg/mL of beads and 1.755 mg/mL of beads

Q: And the “release in saline from DC Bead LUMI” value ([3]; 45 min)?
A: 5.636 mg/mL of beads and 3.25 mg/mL of beads and 2.648 mg/mL of beads

Q: What about the “release in saline from DC Bead LUMI” value ([3]; 60 min) of the same compound?
A: 6.005 mg/mL of beads and 3.196 mg/mL of beads and 2.336 mg/mL of beads

Q: And the “release in saline from DC Bead LUMI” value ([3]; 120 min)?
A: 7.034 mg/mL of beads and 4.188 mg/mL of beads and 2.86 mg/mL of beads

Q: And the “release in saline from DC Bead LUMI” value ([3]; 180 min)?
A: 9.042 mg/mL of beads and 4.426 mg/mL of beads and 3.116 mg/mL of beads

Q: And the “release in saline from DC Bead LUMI” value ([3]; 240 min)?
A: 8.512 mg/mL of beads and 4.6972 mg/mL of beads and 3.19 mg/mL of beads

Q: And the “release in saline from DC Bead LUMI” value ([3]; 300 min)?
A: 8.8991 mg/mL of beads and 4.841 mg/mL of beads and 3.452 mg/mL of beads

Q: And the “release in saline from DC Bead LUMI” value ([3]; 360 min)?
A: 9.596 mg/mL of beads and 5.306 mg/mL of beads and 3.529 mg/mL of beads

Q: What about the “release in saline from DC Bead LUMI” value ([3]; 420 min) of the same compound?
A: 9.49 mg/mL of beads and 5.808 mg/mL of beads and 4.0861 mg/mL of beads

Q: And the “release in saline from DC Bead LUMI” value ([3]; 480 min)?
A: 9.552 mg/mL of beads and 5.445 mg/mL of beads and 3.722 mg/mL of beads

Q: What about the “release in saline from DC Bead LUMI” value ([3]; 1440 min) of the same compound?
A: 10.8637 mg/mL of beads and 7.881 mg/mL of beads and 6.056 mg/mL of beads

Q: And the “release in saline from DC Bead LUMI” value ([3]; 2880 min)?
A: 12.3732 mg/mL of beads and 7.686 mg/mL of beads and 6.267 mg/mL of beads

Q: What about the “release in saline from DC Bead LUMI” value ([3]; 4320 min) of the same compound?
A: 15.5973 mg/mL of beads and 8.751 mg/mL of beads and 7.964 mg/mL of beads

Q: And the “release in saline from DC Bead LUMI” value ([3]; 8640 min)?
A: 14.5448 mg/mL of beads and 10.1106 mg/mL of beads and 7.947 mg/mL of beads

Q: And the “release behaviour in saline” value ([3]; DC Bead LUMI)?
A: rapid release

Q: And the “removal of drug from beads by repeated washing with deionized water” value ([4]; DC Bead LUMI)?
A: partially removed

Q: What about the “aggregation of drug during washing / elution” value ([4]; deionized water and saline, microscopy) of the same compound?
A: Aggregation of IMQ was observed; also recorded: formed aggregates; also recorded: exhibited aggregation
